Test system: Leishmania amazonensis
Assay: Antileishmanial activity against Leishmania amazonensis promastigote by MTT method
Assay type: functional, organism-based

Row | Structure (SMILES) | IC50
1 | O=Cc1cn(-c2cccc(Cl)c2)nn1 | 2800 nM
2 | FC(F)c1cn(-c2cccc(Cl)c2)nn1 | 2600 nM
3 | Cc1ncc(C(F)F)n1-c1ccc(Cl)cc1 | 1700 nM
